Reference: ChEMBL document CHEMBL5260825, “Chemical Constituents of Bryophytes: Structures and Biological Activity” (J Nat Prod, 2018)
In brackets after ≈: the same amount, converted by molar mass. Several values for one entry are separate records, joined by “and”; a condition that tells them apart may be missing. Equal entries are not always repeated.

Experiments:
RAW264.7 [1] = experiment: Inhibition of LPS-induced NO production in mouse RAW264.7 cells; assay type: functional, cell-based
U-251 = experiment: Antiproliferative activity against human U-251MG cells assessed as cell growth inhibition; assay type: functional; details: read-out: ED50 (the source's name)
RPMI-7951 = experiment: Antiproliferative activity against human RPMI-7951 cells assessed as cell growth inhibition; assay type: functional; details: read-out: ED50 (the source's name)
Candida albicans = experiment: Antifungal activity against Candida albicans assessed as inhibition of fungal growth by MTT assay; assay type: functional
HL-60 = experiment: Antiproliferative activity against human HL-60 cells assessed as cell growth inhibition; assay type: functional, cell-based
Staphylococcus aureus = experiment: Antibacterial activity against Staphylococcus aureus assessed as inhibition of bacterial growth by agar diffusion method; assay type: functional
Bacillus subtilis = experiment: Antibacterial activity against Bacillus subtilis assessed as inhibition of bacterial growth; assay type: functional
RAW264.7 [2] = experiment: Inhibition of LPS-induced NO production in mouse RAW264.7 cells incubated for 24 hrs by Griess reagent based assay; assay type: functional, cell-based; details: RAW264.7, 24 h
[3] = Antioxidant activity assessed as DPPH radical scavenging activity; assay type: functional
P388 = experiment: Antiproliferative activity against mouse P388 cells assessed as cell growth inhibition; assay type: functional, cell-based
[4] = Toxicity in brine shrimp assessed as lethality; details: artemia salina
DNA polymerase beta = DNA polymerase beta (Homo sapiens, UniProt P06746); experiment: Inhibition of DNA polymerase beta (unknown origin)
[5] = test system: Peritoneal macrophage cell; experiment: Inhibition of superoxide anion radical release in guinea pig peritoneal macrophages; assay type: functional, cell-based; details: Cavia porcellus
[6] = test system: Trichostrongylus colubriformis; experiment: Anthelmintic activity against third stage larvae of Trichostrongylus colubriformis by microscope based analysis; assay type: functional, organism-based
[7] = target: T1, Polyunsaturated fatty acid 5-lipoxygenase (Homo sapiens) (UniProt P09917); experiment: Inhibition of ALOX5 (unknown origin) at 0.000001 M relative to control; details: dose 1 µM
T1 sequence (whole entry): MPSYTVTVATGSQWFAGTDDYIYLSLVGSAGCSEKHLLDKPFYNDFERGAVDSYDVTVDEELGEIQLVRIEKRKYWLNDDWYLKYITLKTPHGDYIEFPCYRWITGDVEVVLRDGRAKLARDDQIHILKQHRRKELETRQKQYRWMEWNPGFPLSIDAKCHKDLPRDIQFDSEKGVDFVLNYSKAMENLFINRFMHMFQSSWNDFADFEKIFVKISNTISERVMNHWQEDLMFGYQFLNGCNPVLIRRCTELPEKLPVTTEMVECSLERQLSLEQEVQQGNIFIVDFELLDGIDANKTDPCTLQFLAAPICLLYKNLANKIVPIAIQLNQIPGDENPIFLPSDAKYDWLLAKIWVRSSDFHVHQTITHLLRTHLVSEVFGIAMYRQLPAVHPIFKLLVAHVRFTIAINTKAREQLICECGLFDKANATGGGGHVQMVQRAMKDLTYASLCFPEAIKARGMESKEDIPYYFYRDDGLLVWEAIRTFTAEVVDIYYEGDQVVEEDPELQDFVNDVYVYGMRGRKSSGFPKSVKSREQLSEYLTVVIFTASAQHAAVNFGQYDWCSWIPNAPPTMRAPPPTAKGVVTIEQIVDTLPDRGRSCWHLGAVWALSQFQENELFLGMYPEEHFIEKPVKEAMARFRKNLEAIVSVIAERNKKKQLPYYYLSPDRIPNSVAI

Cyclooxygenase = Cyclooxygenase (Homo sapiens, UniProt P35354+P23219); experiment: Inhibition of COX (unknown origin); assay type: protein assay
KB = experiment: Antiproliferative activity against human KB cells assessed as cell growth inhibition; assay type: functional, cell-based

Structure (SMILES): CC1(C)[C@H]2CC[C@]3(C)Oc4cc(O)cc(CCc5ccccc5)c4[C@H]1[C@@H]23
- IC50 (RAW264.7 [1]): 4.5 µM

Structure (SMILES): O=C(/C=C\c1ccccc1)c1cc(O)cc2c1CC(c1ccccc1)O2 (stereo not given) [PALLIDISETIN B]
- EC50 (U-251): 2 µg/mL (≈ 5.84 µM)
- EC50 (RPMI-7951): 1 µg/mL (≈ 2.92 µM)

Structure (SMILES): Oc1ccc2cc1Oc1ccc(cc1)CCc1c(cc(O)c(O)c1O)-c1ccc(cc1O)CC2
- MID (Candida albicans): 4 µg/mL

Structure (SMILES): C=C1C(=O)[C@@H]2C3=C(CC[C@@H]4C(C)(C)CC[C@H](O)[C@@]34C)C[C@H]1[C@@H]2O
- IC50 (HL-60): 780 nM

Structure (SMILES): Cc1cc(O)c(O)c([C@@]2(C)CCCC2(C)C)c1
- diameter of the inhibition zone (DIZ) (Staphylococcus aureus): 17 mm
- MIC (Bacillus subtilis): 2 µg/mL (≈ 8.53 µM)
- IC50 (RAW264.7 [2]): 4.1 µM
- IC50 [3]: 1.9 µg/mL (≈ 8.11 µM)
- IC50 (HL-60): 1.4 µg/mL

Structure (SMILES): NC[C@H]1O[C@H](O[C@H]2[C@H](O)[C@@H](O[C@H]3O[C@H](CO)[C@@H](O)[C@H](N)[C@H]3O)[C@H](N)C[C@@H]2N)[C@H](O)[C@@H](O)[C@@H]1O [KANAMYCIN]
- diameter of the inhibition zone (DIZ) (Staphylococcus aureus): 23 mm

Structure (SMILES): CC1(C)CCC[C@]2(C)CC3=CC(=O)O[C@@]3(O)C[C@@H]12
- IC50 (P388): 2.3 µg/mL (≈ 9.19 µM)

Structure (SMILES): COc1ccc(CCc2c(Cl)ccc(O)c2Cl)cc1
- LC50 [4]: 0.42 ppm

Structure (SMILES): Oc1ccc2c(c1)CCc1ccc(cc1)Oc1cc(cc(-c3cc4cc(c3O)Oc3ccc(cc3)CCc3cc(O)ccc3-c3ccc(cc3O)CC4)c1O)CCc1ccc-2c(O)c1 [PUSILATIN B]
- IC50 (DNA polymerase beta): 13 µM

Structure (SMILES): C=C1C[C@@]23CC(OC(=O)/C=C/c4ccc(O)c(O)c4)[C@@H]1[C@@]2(C)CCCC3(C)C (stereo not given in full)
- IC50 (RAW264.7 [1]): 6.3 µM

Structure (SMILES): C=C1[C@@H]2CCC3[C@@](CC(=O)[C@@H]4C(C)(C)CCC[C@@]34CO[C@@H]3O[C@H](CO)[C@@H](O)[C@H](O)[C@H]3OC(C)=O)(C2)[C@@H]1O (stereo not given in full)
- IC50 [5]: 12.5 µg/mL (≈ 23.9 µM)

Structure (SMILES): C=C1C(=O)O[C@H]2/C=C(\C)CC/C=C(\C)CC[C@H]12
- IC50 (P388): 0.7 µg/mL (≈ 3.01 µM)

Structure (SMILES): Clc1ccc(COC(Cn2ccnc2)c2ccc(Cl)cc2Cl)c(Cl)c1 (stereo not given) [MICONAZOLE]
- MID (Candida albicans): 0.01 µg

Structure (SMILES): Cc1cc([C@@]2(C)CCCC2(C)C)cc(O)c1O
- IC50 [5]: 12.5 µg/mL (≈ 53.3 µM)

Structure (SMILES): C=C1C(=O)[C@H]2C[C@@H]1CC1=C2[C@@]2(C)[C@H](CC1)C(C)(C)CC[C@@H]2O
- IC50 (HL-60): 280 nM

Structure (SMILES): CC1(C)CCC[C@]2(C)[C@@H](C=O)C(C=O)=CC[C@@H]12 [POLYGODIAL]
- IC50 [6]: 70 µg/mL (≈ 299 µM)

Structure (SMILES): C[C@H]1C(O)(O)C[C@@]2(C)[C@@H](CC[C@@H]3O[C@@]32C)[C@]1(C)CCc1ccoc1
- IC50 (RAW264.7 [1]): 4.5 µM

Structure (SMILES): C=C1CC[C@H]2[C@@H]([C@H]3C(C)=COC(=O)[C@@H]13)C2(C)C
- IC50 [5]: 12.5 µg/mL (≈ 53.8 µM)

Structure (SMILES): CC(C)=CCC[C@@]1(C)C=Cc2c(CCc3ccccc3)cc(O)cc2O1
- IC50 (RAW264.7 [1]): 4.5 µM

Structure (SMILES): COC1Cc2cccc(c2)Oc2c(O)cccc2CCc2ccc(cc2)Oc2cc1cc(O)c2O (stereo not given) [MARCHANTIN E]
- inhibition [7]: 4%
- IC50 (Cyclooxygenase): 58 µM
- IC50 (KB): 7.6 µM
- MID (Candida albicans): 2.5 µg/mL

Structure (SMILES): C=C1C(=O)[C@H]2C[C@@H]1CC1=C2[C@]2(C)CCCC(C)(C)[C@H]2CC1
- IC50 (HL-60): 1210 nM

Structure (SMILES): C/C1=C\[C@@H]2[C@H](CC/C(C)=C/CC1)C2(C)C=O (stereo not given in full)
- IC50 [5]: 12.5 µg/mL (≈ 57.3 µM)

Structure (SMILES): C[C@H]1C(=O)C2=C[C@H]1CCC(=O)[C@]1(C)CCCC(C)(C)[C@H]1C[C@H]2O
- GI50 (P388): 1.9 µg/mL and 5.9 µM
- IC50 (P388): 0.8 µg/mL (≈ 2.51 µM)

Structure (SMILES): Cc1ccc([C@@]2(C)CCCC2(C)C)c(O)c1O
- IC50 (RAW264.7 [2]): 4.1 µM

Structure (SMILES): C=C1C(=O)[C@@]23CC[C@@H]4C(C)(C)CCC[C@@]4(C)[C@@H]2[C@@H](O)C[C@@H]1C3
- GI50 (P388): 0.48 µg/mL and 1.6 µM
- IC50 (HL-60): 490 nM

Structure (SMILES): COc1ccc(C[C@@H]2OC(=O)c3c(OC)cc(OC)cc32)cc1
- IC50 (HL-60): 920 nM
- IC50 (KB): 0.96 µM

Structure (SMILES): O=C(N[C@H](CO)[C@H](O)c1ccc([N+](=O)[O-])cc1)C(Cl)Cl [CHLORAMPHENICOL]
- diameter of the inhibition zone (DIZ) (Staphylococcus aureus): 22 mm

Structure (SMILES): C[C@@H]1CC[C@H]2C(=O)c3ccoc3C[C@@]12C
- IC50 [5]: 12.5 µg/mL (≈ 61.2 µM)
- IC50 (RAW264.7 [1]): 1.7 µM

Structure (SMILES): C[C@H]1CC[C@@]2(C)[C@@H](CC[C@@H]3O[C@@]32C)[C@]1(C)CCc1ccoc1
- IC50 (RAW264.7 [1]): 4.5 µM

Structure (SMILES): CC(C)=CCc1c(O)cc(CCc2ccccc2)cc1O
- inhibition [7]: 4%

Structure (SMILES): COC(=O)[C@@]12Cc3occc3C(=O)[C@]1(C)CC[C@H]2C [NORPINGUISONE METHYL ESTER]
- IC50 [5]: 35 µg/mL (≈ 133 µM)
- IC50 (RAW264.7 [1]): 45.5 µM

Structure (SMILES): C=C1C(=O)C[C@H]2[C@H]3[C@@H]1[C@]2(COC(C)=O)CCCC3(C)C
- IC50 (P388): 1 µg/mL (≈ 3.62 µM)
